US20110104274A1, “NOVEL COMPOSITION AND USES THEREOF, IN PARTICULAR COSMETIC USES, FOR TREATING SKIN DEHYDRATION” (COMPAGNIE GERVAIS DANONE, priority 2006, published 2011)
Blank lines part the entries; values can stand above or below the compound they belong to.

Legend:
[1] = system: transglutaminase K (TGK) expression in normal human keratinocytes (NHEKs); experiment: Expression of transglutaminase K (TGK) in NHEKs (immunofluorescence related to number of nuclei); assay type: cell-based; conditions: for Expression of TGK (average): related to negative control
Procedure: The GLA used is the product L2378 from the company SIGMA. The 4 main forms of catechins forming green tea polyphenol are mixed in the natural proportions: EGCG, EGC, ECG and EC (respective SIGMA references E4143, E3768, E3893 and E4018).
The range of concentration of GLA tested in vitro was from 1 to 4 μg/ml and that of GTP was from 0.3 to 0.7 μg/ml.
(§1) The tests are carried out on normal human keratinocytes (NHEKs) in a monolayer. The NHEKs are sown at 10^4/well in serum-free medium (SFM) without calcium, under conditions of temperature of 37° C., CO2 of 5% and relative humidity RH>95%. The NHEKs are incubated like this for 24 hours. The medium is then removed. Then the NHEKs are incubated for 48 hours in the presence of either: • SFM (serum-free medium) with addition of gamma-linolenic acid and green tea polyphenols at a concentration of 1.25, 2.5 or 3.75 μg/mL for GLA and at a concentration of 0.5 μg/ml for GTP; • SFM (serum-free medium) without calcium, which serves as negative control; • SFM (serum-free medium) with addition of calcium (1.50 mM), which serves as positive control.
The media are removed and a second incubation is carried out in the presence of the 3 types of media.
The culture medium is removed and then rinsing with PBS is carried out. The cells are then permeabilized and fixed with absolute methanol for 10 minutes at −20° C. Then drying and nonspecific saturation with a PBS-Tween20-milk proteins mixture are carried out, followed by rinsing with PBS. The NHEK cells are labelled with an anti-TGK monoclonal antibody (Reference: TEBU 0175003), then incubated for 1 hour at room temperature and rinsed with PBS.
Detection is carried out with a GAM-FITC conjugated secondary antibody (Reference: Life Technology A 11001) and the fluorescence is measured using software (Reference: NIKKON; LICIA Software).
The nuclei are labelled and counted by the Hoechst technique. First, the medium is removed and rinsing with PBS is carried out. Hoechst labelling (Reference: bis-benzimide Sigma B1155) is then used and incubation is carried out for 1 hour at ambient temperature. This is followed by rinsing with PBS, image acquisition and quantification of fluorescence.
The results are expressed in specific fluorescence of TGK, i.e. they are related to the number of nuclei so as to be independent of the variations in growth of the cells.
The average expression of TGK corresponds to measurement of the quantity of fluorescence referred to the number of nuclei after Hoechst labelling.

[2] = Bioavailability study: plasma/serum concentrations of catechins (EC, EGC, EGCG) after ingestion; assay type: in vivo, human; conditions: ingestion of 45 mg of catechins
Procedure: This study evaluates the bioavailability of the combination of catechins with GLA, and in particular the bioavailability of this combination in a yoghurt containing probiotics (see Table 1).
To evaluate this bioavailability, the plasma concentrations of GLA and of catechins are monitored at different points in time after ingestion of products 1, 2, 3 or 4.
This study is a norm-centred, randomized, open study. It was carried out with 12 female volunteers (average age 30.8 years; body mass index (BMI) on average 21.4).
During each assessment visit (V2, V3, V4), the subjects consumed a product at random (among the 4 products). […]
[…] blood samples were taken in the 6 hours following ingestion of the product. The plasma concentration of the active ingredients was measured at 6 points in time (T0, T1 h, T2 h, T3 h, T4 h, T6 h) for measuring the plasma kinetics of GLA and the catechins. […]
The plasma concentrations of catechins and specifically of epicatechin (EC), epigallocatechin (EGC), and epigallocatechin gallate (EGCG) were determined by HPLC as described by Lee et al. (Lee M J, Prabhu S, Meng X, Li C, Yang C S. An improved method for the determination of green and black tea polyphenols in biomatrices by high-performance liquid chromatography with coulometric array detection. Anal. Biochem. 2000; 279: 164-9) and on the basis of the general knowledge of a person skilled in the art. […]

promoter of involucrin = conditions: high dose of 20 μg/mL; literature; cited from earlier work
[3] = system: normal human keratinocytes (NHEKs); experiment: Cytotoxicity test (MTT) on NHEKs, involucrin study; assay type: cell-based; conditions: up to 10 μg/mL, regardless of the calcium concentration
Procedure: (§2) The NHEKs of the two groups are incubated for 48 hours in the presence of a low ([…]) or a high ([…]) concentration of calcium, and in the presence of either: • SFM (serum-free medium) with addition of 0, 1, 3 and 10 μg/mL of gamma-linolenic acid and/or of green tea extracts, in which the concentration of green tea polyphenol is approximately 88 wt. %; • SFM (serum-free medium) with addition of calcium, which serves as positive control.
(§3) The cell viability of the NHEKs is evaluated after labelling with 3-[4,5-dimethylthiazol-2-yl]-2,5-diphenyltetrazolium bromide (MTT) (SIGMA).

[4] = system: normal human keratinocytes (NHEKs); experiment: Cytotoxicity test (MTT) on NHEKs, TGK study; assay type: cell-based; conditions: MTT labelling
Procedure: as §1, §3

[5] = system: involucrin expression in normal human keratinocytes (NHEKs); experiment: Expression of involucrin in NHEKs (ELISA); assay type: cell-based; conditions: 0 to 10 μg/mL; NHEKs of groups 1 (abdominal) and 2 (breast); high or low calcium concentration; 48 hours
Procedure: The GLA used is the product L2378 from the company SIGMA.
as §2

Structure (SMILES): [Ca+2] [Ca++, calcium]
- Expression of TGK (average) ([1]; positive control, calcium 1.5 mM): 1407%

- concentration of the individual catechin in the serum [2]: 0.04 to 0.33 µmol
- concentration of the individual catechin in the serum ([2]; mass units): 18 to 152 ng/mL
Structure (SMILES): O=C(O[C@@H]1Cc2c(O)cc(O)cc2O[C@@H]1c1cc(O)c(O)c(O)c1)c1cc(O)c(O)c(O)c1 [EGCG, epigallocatechin gallate]
- effect on the promoter of involucrin (promoter of involucrin): activation

- expression/activation of TGK after treatment (conclusion in words) ([1]; at the concentrations tested (GLA 1.25 and 3.75 μg/mL; GTP 0.5 μg/mL; GLA 2.5 + GTP 0.5 μg/mL)): seems to be activated
Structure (SMILES): CCCCC/C=C\C/C=C\C/C=C\CCCCC(=O)O [GLA, gamma-linolenic acid]
- Expression of TGK (average) ([1]; GLA 1.25 μg/mL): 250%
- Expression of TGK (average) ([1]; GLA 3.75 μg/mL): 220%
- toxicity to the NHEKs [3]: not toxic
- maximum concentration without loss of viability of the NHEKs [4]: 5.00 µg/mL
- expression of involucrin after treatment alone [5]: increased
